Data on three compounds can be found in patent publication US20250387406A1, “THERAPY FOR REDUCED OTOTOXICITY FROM CHEMOTHERAPEUTIC AGENT WITH PENTAAZA MACROCYCLIC RING COMPLEX” (GALERA LABS, LLC, priority 2022, published 2025).

In data set [1] the test system is rat. As to conditions: Salvemini et al. 1999; cited from earlier work.
Another data set has as its system adult mice. As to conditions: lethal total body irradiation, Thompson et al. 2010; cited from earlier work.
Data set [2] relates to rats subjected to an experimental model of colitis. As to conditions: rat colitis model, Cuzzocrea et al. 2001; cited from earlier work.
Another data set deals with hamster. As to conditions: hamster oral mucositis, Murphy et al. 2008; cited from earlier work.
In data set [3] the test system is rat. To be noted: Salvemini et al. 2001; cited from earlier work.
The subject of data set [4] is H1299 human NSCLC cells, modified to inducibly overexpress catalase (H1299CAT). Description: Survival of H1299CAT cells with GC4419, cisplatin and catalase overexpression. Further details: dose or concentration left out as unconfirmed. As to conditions: GC4419 added to cisplatin, 120 hours. Format: cell-based. From the text:
CAT overexpression in this line (H1299CAT) was induced by administration of doxycycline, which turned on transcription of the inserted catalase genes.

The test system of data set [5] is athymic female Nu/Nu (nude) mice. Description: Cisplatin-induced hematotoxicity in SQ20B tumor-bearing nude mice. Format: in vivo, mouse. As to the method:
7 week old athymic female Nu/Nu (nude) mice were implanted in a hind leg with SQ20B human head and neck squamous cell carcinoma cells. […] Mice were assessed for blood counts by tail vein blood collection either 2 days or 2 weeks after the treatment period.

The test system of data set [6] is H460 cells. Put plainly: Mitochondrial superoxide, MitoSOX probe, flow cytometer, H460. The class given is cell-based, human.
For data set [7], the system named is H1299 (wild type) cells. Put plainly: Hydrogen peroxide, PO-1 probe, H1299. Format: cell-based, human.
The test system of another data set is Male C57BL/6J mice. Put plainly: Cisplatin-induced acute kidney injury (AKI) model in mice. Format: in vivo, mouse. An excerpt:
4 month old male C57BL/6J mice (young) were purchased from Jackson Laboratories and 18 month old mice (old) were obtained as collaboration with Dr. Amy Sindler (University of Iowa) from the National institute of Aging. All mice were maintained in accordance with ACURF approval #4121235 at the University of Iowa Animal Care facility. Mice were maintained on normal diets and water ad libitum through the course of the experiment.
Animals were weighed every other day following the start of treatment with GC4419.

Data set [8] concerns H1299 (wild type) cells. Put plainly: Mitochondrial superoxide, MitoSOX probe, flow cytometer, H1299. The class given is cell-based, human.
The subject of data set [9] is H1299 (wild type) cells. Put plainly: Total reactive oxygen species, CellROX probe, flow cytometer, H1299. The class given is cell-based, human. How it is done: (§1) After the treatments and incubations CellROX fluorogenic probes for total ROS were added for 30 minutes continued incubation and the CellROX signal was measured using a flow cytometer.
Data set [10] concerns head-and-neck cancer patients. As to conditions: patients undergoing chemoradiation therapy, Anderson 2015; cited from earlier work.
In the next data set the test system is head and neck patients. To be noted: concurrent chemoradiotherapy; cited from earlier work.
The test system of data set [11] is H460 human non-small cell lung carcinoma (NSCLC) cells. Put plainly: Survival of H460 cells in culture with GC4419 and cisplatin. Format: cell-based. More on the design: dose or concentration left out as unconfirmed. To be noted: GC4419 added to indicated concentrations of cisplatin, 120 hrs, vs cisplatin alone. As to the method:
After 120 hrs the surviving fraction of cells was determined.

In data set [12] the test system is rat. To be noted: rat model, Tuder et al. 2003; cited from earlier work.
Data set [13] relates to hair cells in mouse cochlea cultures. Description: Mouse cochlea cultures with paclitaxel, hair cell number. As to conditions: 2 μM GC4419 for 48 or 72 hours (24 hour pre-treatment) with paclitaxel 0.1 μM and 1 μM. The class given is cell-based. As to the method:
Pups from C57BL/B16 pregnant female mice were decapitated on postnatal day 3. The stria vascularis and spiral ligament were removed, and the cochlea dissected out. The cochlea was placed in 400 ul of DMEM 5% FBS on a collagen pre-prepared culture dish and incubated at 4% O2, 37° C. in 5% CO2 for 24 hours. The medium was then exchanged with new medium that contained paclitaxel 0, 100 nM, and 1 μM, with and without 2 μM GC4419 for 48 hours, or pretreated for 24 hours with 2 μM GC4419 followed by paclitaxel treatment. The explants were then fixed for 1 hour in 4% paraformaldehyde. Specimens were stained with anti-myosin-VIIa antibody. Specimens were mounted and examined under a fluorescence microscope and hair cells counted using the image analysis software Imaris.

Data set [14] relates to H460 cells. Description: Total reactive oxygen species, CellROX probe, flow cytometer, H460. Format: cell-based, human. As to the method:
as §1

The test system of data set [15] is PARP (poly (ADP ribosyl) polymerase). Put plainly: PARP activation in H1299CAT cells with doxycycline induction of CAT overexpression. To be noted: CAT induced with doxycycline. The class given is cell-based, human. From the text:
When treated with doxcycline, H1299CAT cells express greater levels of human catalase (CAT) than the “parent” cells, H1299 (wild type), eliminating all or part of the H2O2 generated from superoxide by GC4419 or other Mn pentaaza macrocyclic dismutase mimetics.

The next data set concerns CBA/CaJ mice. Description: In vivo multicycle mouse model of cisplatin toxicity. As to conditions: 10 mg/kg GC4419 1 hour prior to 3.0 mg/kg cisplatin IP.
Data set [16] concerns hair cells in mouse cochlea cultures. Put plainly: Cochlear organotypic cultures with cisplatin, hair cell number. Format: cell-based.
Description: Cochlear organotypic cultures. C57BL/10J mice were decapitated on postnatal day 2 or 3. The stria vascularis and spiral ligament was removed and the organ of Corti and spiral ganglion neurons from the middle turn of the cochlea dissected out. The middle turn of the cochlea was placed in a collagen matrix and 1 ml of serum-free BME plus serum free supplement, 1% bovine serum albumin, 2 mM glutamine, 5 mg/ml glucose, and 10 U/ml penicillin on a collagen pre-prepared culture dish. The cochlear explants were incubated at 4% O2, 37° C. in 5% CO2 for 2 h. […] After 24 hours the cultures were fixed for 4 h in 4% paraformaldehyde as previously described (see, e.g., McFadden et al., Toxicol Appl Pharmacol. 2003; 186(1):46-54) and immersed in rhodamine-labeled phalloidin in PBS for 30 min. […] Tissues were examined histologically for inner and outer hair cell organization and number as previously described. Dihydroethidium (DHE) was used to measure oxidative stress. […] The cochlear specimens were incubated with 1 μm DHE for 30 min at 37° C. and then fluorescent images obtained with a confocal laser microscope as previously described (see, e.g., Fetoni et al., The Journal of neuroscience: the official journal of the Society for Neuroscience. 2013; 33(9):4011-23).
In data set [17] the test system is PARP (poly (ADP ribosyl) polymerase). Description: PARP activation in H460 cells (Western blot, 89 kd active/116 kd inactive form). The class given is cell-based, human. From the text:
PARP is a nuclear enzyme involved in DNA repair of single strand breaks and is activated following cell stress including chemotherapy and irradiation.

The test system is the same in data set [18]. Put plainly: PARP activation in H1299 (wild type) cells (Western blot). The class given is cell-based, human.
For data set [19], the system named is H460 cells. Put plainly: Hydrogen peroxide, PO-1 probe, H460. The class given is cell-based, human.
Data set [20] has as its system hair cells of the cochlea. As to conditions: cited from earlier work.
In a further data set the test system is patients. As to conditions: human, in vivo; cited from earlier work.
Setting [21] is: 10 mg/kg GC4419 + cisplatin + IR.
The mark [22] stands for this setting: 10 mg/kg GC4419 + cisplatin + IR, 2 days and 2 weeks after end of treatment.
[23] abbreviates: H460, GC4419 added to cisplatin or cisplatin plus IR.
Where [24] appears, read: H1299, GC4419 added to cisplatin or cisplatin plus IR.
[25] abbreviates: 10 mg/kg GC4419 daily + cisplatin.
The mark [26] stands for this setting: 10 mg/kg GC4419 daily from 4 days prior to 10 mg/kg cisplatin until euthanasia.
The mark [27] stands for this setting: H460, cisplatin or cisplatin plus IR.
The mark [28] stands for this setting: H1299, cisplatin or cisplatin plus IR.

In the case of `[Cl-].[Cl-].[Mn+2].c1cc2nc(c1)CN[C@@H]1CCCC[C@H]1NCCN[C@@H]1CCCC[C@H]1NC2` [GC4403], the inflammation result in the data set with rat [1] is “inhibit inflammation”. The radiation damage result in the data set on adult mice and with hamster was “attenuate the radiation damage” throughout. Further, the “injury to the colon” value in [2] was “very significantly reduce the injury to the colon”. Moreover, in the data set on rat [3], the joint disease entry is recorded as “prevent joint disease”.

Turning to `[Cl][Mn][Cl].c1cc2nc(c1)CN[C@H]1CCCC[C@@H]1NCCN[C@H]1CCCC[C@@H]1NC2` [GC4419], the “surviving fraction of cells” value is “abrogated the GC4419 contribution to cisplatin response” in data set [4] (with CAT overexpression (doxycycline)); “decreased the surviving fraction” in [4] (without CAT overexpression (wt), vs cisplatin alone); “decreased the surviving fraction” in data set [11]. Besides, in data set [5] (setting [21]), the eosinophil percentage result is reported as “maintained eosinophil percentage at apparently normal levels”. Also, the neutrophil percentage entry in [5] (setting [21]) is “maintained neutrophil percentage at apparently normal levels”. For the same compound, the “leukocyte (WBC) count” value in [5] (setting [22]) was “stimulated leukocyte (WBC)”. Moreover, the lymphocyte subset entry in data set [5] (setting [22]) was “proportionally lymphocyte subset production”. Also, the platelets entry in data set [5] (10 mg/kg GC4419 every day + cisplatin + IR, two days after end of treatments) is “significantly restored platelet levels”. For the same compound, the “mitochondrial superoxide (MitoSOX signal)” value in the data set with H460 cells [6] (setting [23]) and in the data set on H1299 (wild type) cells [8] (setting [24]) was “significantly reduced the increase in mitochondrial superoxide” each time. Also, the “basal levels of mitochondrial superoxide (MitoSOX signal)” value is reported as “significantly reduced the basal levels of mitochondrial superoxide” in the data set with H460 cells [6] (H460, GC4419 alone) and “significantly reduced the basal levels of mitochondrial superoxide” in the data set with H1299 (wild type) cells [8] (H1299, GC4419 alone). Further, the “H2O2 (PO-1 probe)” value in the data set on H1299 (wild type) cells [7] (setting [24]) and with H460 cells [19] (setting [23]) was “significantly further increases the increase in H2O2” in each case. In addition, the “basal levels of H2O2 (PO-1 probe)” value was “significantly increases both the basal levels of H2O2” in the data set with H1299 (wild type) cells [7] (H1299, GC4419 alone) and “significantly increases both the basal levels of H2O2” in the data set on H460 cells [19] (H460, GC4419 alone). In addition, the “kidney injury molecule 1 (KIM1) biomarker” value in the data set on Male C57BL/6J mice (setting [25]) is recorded as “prevented that injury”. The “neutrophil gelatinase-associated lipocalin (NGAL) biomarker” value in the data set with Male C57BL/6J mice (setting [25]) is “prevented that injury”. Besides, in the data set on Male C57BL/6J mice (10 mg/kg GC4419 daily + cisplatin, old mice), the survival entry is “prevented cisplatin mortality”. In the data set on Male C57BL/6J mice (10 mg/kg GC4419 daily + cisplatin, young and old mice), the weight loss entry was “reduced the amount of weight loss”. The creatinine level entry in the data set on Male C57BL/6J mice (setting [26]) is “completely prevented these increases in BUN and creatinine”. Further, in the data set with Male C57BL/6J mice (setting [26]), the “whole blood urea nitrogen (BUN) level” value is “completely prevented these increases in BUN and creatinine”. Moreover, the “total ROS (CellROX signal)” value with H1299 (wild type) cells [9] (H1299, 24 M GC4419 used alone) is “little effect on total ROS”; with H1299 (wild type) cells [9] (H1299, GC4419 added to cisplatin therapy) it was “synergistic effect on total ROS”; in the data set on H460 cells [14] (H460, 24 M GC4419 used alone), “little effect on total ROS”; in the data set with H460 cells [14] (H460, GC4419 added to cisplatin therapy), “synergistic effect on total ROS”. Moreover, the oral mucositis result in [10] was “reduce oral mucositis”. The “incidence of chronic kidney disease” value in the data set with head and neck patients was “significantly decrease the incidence of chronic kidney disease”. For the same compound, the “VEGFr inhibitor-induced pulmonary disease” value in the data set with rat [12] was “attenuate VEGFr inhibitor-induced pulmonary disease”. In addition, the “number of hair cells (FIG. 15)” value in data set [13] was “protective effect of GC4419 on the hair cells”. Moreover, the “PARP activation response to cisplatin” value in data set [15] (24 M GC4419 + 1 M cisplatin, 24 hours (p<0.01, FIG. 6B)) is listed as “significantly (p<0.05) reduced the PARP activation response”. Moreover, the “PARP activation response to IR+cisplatin” value in [15] (24 M GC4419 + 6 Gy IR + 1 M cisplatin, 24 hours (p<0.001, FIG. 6C)) is “significantly (p<0.05) reduced the PARP activation response”. The “PARP activation response to IR” value in [15] (24 M GC4419 + 6 Gy IR, 24 hours (p<0.05, FIG. 6C)) is “significantly (p<0.05) reduced the PARP activation response”. Moreover, in the data set with CBA/CaJ mice, the “weight loss (FIG. 14)” value is reported as “reduced the amount of weight loss caused by cisplatin”. In [16] (GC4419 0.5, 2 or 4 μM with cisplatin, 24 h), the “number of hair cells (FIG. 12A)” value is “dose-dependent protection against hair cell damage”. Besides, the “hair cell damage, microscopy images (FIG. 12B)” value in [16] (GC4419 with cisplatin) is “reduced damage to the hair cells caused by cisplatin and preserved the number of hair cells”. Moreover, the “PARP activity (ratio 89 kd active to 116 kd inactive form)” value in [17] (24 μM GC4419 added to 6 Gy IR + 1 μM cisplatin, 24 hr) was “significantly increased (p<0.01)”; in [17] (24 μM GC4419 added to 6 Gy IR, 24 hr, vs radiation alone), “significantly increased PARP activity”; in [17] (24 M GC4419 added to 1 M cisplatin, 24 hours, vs cisplatin) it was “further and significantly (p<0.01) increased PARP activity”; in data set [18] (24 μM GC4419 added to 10 μM cisplatin, 24 hr, vs cisplatin) it was “further and significantly p<0.01) increased PARP activity”; in data set [18] (24 M GC4419 added to 6 Gy IR + 1 M cisplatin, 24 hours), “significantly increased (p<0.0.05)”; in [18] (24 M GC4419 added to 6 Gy IR, 24 hours, vs radiation alone), “significantly increased PARP activity”.

Consider `N.N.[Cl][Pt][Cl]` [cisplatin, reference compound], for which the “mitochondrial superoxide (MitoSOX signal)” value in the data set on H460 cells [6] (setting [27]) and in the data set with H1299 (wild type) cells [8] (setting [28]) was “increase in mitochondrial superoxide” in each case. Further, in data set [20], the “damage to inner hair cells (IHCs)” value is on record as “sparing of inner hair cells (IHCs)”. Besides, the “damage to outer hair cells (OHCs)” value in data set [20] was “profoundly damages outer hair cells (OHCs)”. Also, the “H2O2 (PO-1 probe)” value with H1299 (wild type) cells [7] (setting [28]) and with H460 cells [19] (setting [27]) was “increase in H2O2” each time. In addition, the “total ROS (CellROX signal)” value with H1299 (wild type) cells [9] (H1299, 1 M cisplatin or cisplatin plus 6 Gy IR) is listed as “increased total ROS”; in the data set on H460 cells [14] (H460, 1 M cisplatin or cisplatin plus 6 Gy IR) it was “increased total ROS”. Besides, in the data set with patients, the “mean cHL” value is reported as 36 dB.
